Experimental data as given in patent publication US9790503B2, “VHZ for diagnosis and treatment of cancer” (AGENCY FOR SCIENCE, TECHNOLOGY AND RESEARCH (A*STAR), priority 2007, dated 2017).

Biological target: T1, VHZ-GST (Homo sapiens, UniProt Q9BVJ7)
T1 construct: made in house
T1 sequence (Q9BVJ7 1-150): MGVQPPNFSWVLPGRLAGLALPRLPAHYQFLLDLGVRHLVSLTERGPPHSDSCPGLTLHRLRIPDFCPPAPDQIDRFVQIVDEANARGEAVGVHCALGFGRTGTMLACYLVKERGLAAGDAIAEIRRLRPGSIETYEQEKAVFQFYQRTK
Experiment: Tyrosine phosphatase assay (EnzChek kit, fluorogenic substrate)
Type: biochemical
Details: 10 μM sodium orthovanadate added to the reaction; VHZ-GST 0.675 picomoles; fluorescence excitation/emission 358/452 nm
Experimental: The EnzChek kit (Invitrogen, R22065) is used. As per the manufacturer's protocol, the fluorogenic substrate is reconstituted in the assay wells with buffer; the desired potential PTPases (0.675 picomole for each protein: VHZ-GST, VHZ-GST+Phosphatase inhibitor, VHZ(C95S)-GST, and control GST) are added to the wells and incubated 30 min or 90 min respectively. The fluorescence is then quantified using a Gemini XPS microplate spectrofluorometer (Molecular Devices). Fluorescence is measured at 10 minute intervals at the excitation and emission wavelengths of 358 and 452 nm, respectively. The phosphatase inhibitor sodium orthovanadate (10 μM) is used in the assay as a negative control.

Question: `[Na+].[Na+].[Na+].[O]=[V]([O-])([O-])[O-]` [sodium orthovanadate] was tested. Which “PTPase activity of VHZ” value did it give?
Answer: completely abolished
